Measured values from US10766879B2, “Pyrimidine derivatives as kinase inhibitors and their therapeutical applications” (NantBioScience, Inc., priority 2015, dated 2020).

Experiments:
KDR kinase = biological target: T1, KDR kinase (Homo sapiens, UniProt P35968); assay: KinaseProfiler kinase inhibition assay, KDR; format: biochemical; conditions: 1 μM compound
T1 construct: purchased Millipore (KinaseProfiler Service)

c-Src kinase = biological target: T2, c-Src kinase (Homo sapiens, UniProt P12931); assay: KinaseProfiler kinase inhibition assay, c-Src; format: biochemical; conditions: 1 μM compound; read-out: % Inhibition @1 μM cSrc
T2 construct: purchased Millipore (KinaseProfiler Service)

Kato III = assay: CellTiterblue viability, 72 hr, Kato III; format: cell-based; conditions: Homo sapiens, Kato III cells
Procedure, shortened: (§1)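 After 72 hr drug exposure of 1000 cells/well at 37° C, CellTiterblue is applied for 3 hr and fluorescence taken; GI50 reported.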

KG1a = assay: CellTiterblue viability, 72 hr, KG1a; format: cell-based; conditions: Homo sapiens, KG-1a, KG1a cells
Description: (§2) A number of studies were performed to analyze the consequences of tyrosine kinase inhibition in cell lines. To do this, 1000 cells are seeded in 27 μl/well in 384-well microplates, which are then placed in a humidified CO2 incubator at 37° C. overnight. The next day, 3 μl/well of 10× concentrated drug is added and the plates are returned to the incubator for 72 hr. After 72 hr incubation, plates are removed and […] CellTiterblue (Promega) viability reagent is added. Plates are returned to the incubator for 3 hr, after which it is fluorescence measurements are read on the Victor X3 plate reader (Perkin Elmer). Data are analyzed using Excel (Microsoft), and GI50 values are determined using Prism (Graphpad).

RT112 = assay: CellTiterblue viability, 72 hr, RT112; format: cell-based; conditions: Homo sapiens, RT-112, RT112 cells
Description: as §2

Ret kinase = biological target: T3, Ret kinase (Homo sapiens, UniProt P07949); assay: KinaseProfiler kinase inhibition assay, Ret; format: biochemical; conditions: 1 μM compound
T3 construct: purchased Millipore (KinaseProfiler Service)

FGFR1 kinase = biological target: T4, FGFR1 kinase (Homo sapiens, UniProt P11362); assay: KinaseProfiler kinase inhibition assay, FGFR1; format: biochemical; conditions: 1 μM compound
T4 construct: purchased Millipore (KinaseProfiler Service)

phospho-FGFR2 = biological target: T5, phospho-FGFR2 (Homo sapiens, UniProt P21802); assay: phospho-FGFR ELISA on Kato III cells; format: cell-based; conditions: read-out: EC50 (nM) P-FGFR2, Kato III cells
T5 construct: endogenous in cells; host or cells: Kato III cells
Description: For the phospho-FGFR, the following assay Protocol was used. 25,000 cells are seeded in 90 μl/well in 96-well microplates, which are then placed in a humidified CO2 incubator at 37° C. overnight. 96-well ELISA plates (Mesoscale Discovery) are coated with capture antibody (R&D Systems Duo-Set) at 4 μg/ml, 30 μl/well. The next day, 10 μl/well of 10× concentrated drug is added and the plates are returned to the incubator for […]. ELISA plates are washed using an automated plate washer (BioTek Instruments). After 30 min, cells are inverted and gently tapped to remove excess medium, and immediately placed on ice. 30 μl mPer cell lysis reagent (Thermo Scientific) with protease and phosphatase inhibitors is added/well. After 15 min on ice, lysates are mixed and 30 μl transferred to the ELISA plate. Plates are incubated for 2 hr, washed, and 30 μl/well detection antibody is added. After 1 hr, plates are washed and 30 μl “SulfoTag” (MesoScale Discovery) detection reagent is added. After 1 hr, plates are washed and 150 μl/well read solution is added. Electrochemiluminescence is determined on the Mesoscale Discovery Sector Imager 2000. Data are analyzed using Excel (Microsoft), and EC50 values are determined using Prism (Graphpad).

Tie2 = biological target: T6, Tie2 (Homo sapiens, UniProt Q02763); assay: KinaseProfiler kinase inhibition assay, Tie2; format: biochemical; conditions: 1 μM compound
T6 construct: purchased Millipore (KinaseProfiler Service)

MDA-MB134 = assay: CellTiterblue viability, 72 hr, MDA-MB134; format: cell-based; conditions: MDA-MB134 cells
Description: as §2

Alk kinase = biological target: T7, Alk kinase (Homo sapiens, UniProt Q9UM73); assay: KinaseProfiler kinase inhibition assay, Alk; format: biochemical; conditions: 1 μM compound
T7 construct: purchased Millipore (KinaseProfiler Service)

AN3_CA = assay: CellTiterblue viability, 72 hr, AN3_CA; format: cell-based; conditions: Homo sapiens, AN3-CA, AN3_CA cells
Procedure, shortened: as §1

Abl kinase = biological target: T8, Abl kinase (Homo sapiens, UniProt P00519); assay: KinaseProfiler kinase inhibition assay, Abl; format: biochemical; conditions: 1 μM compound
T8 construct: purchased Millipore (KinaseProfiler Service)
T8 sequence (P00519 whole entry): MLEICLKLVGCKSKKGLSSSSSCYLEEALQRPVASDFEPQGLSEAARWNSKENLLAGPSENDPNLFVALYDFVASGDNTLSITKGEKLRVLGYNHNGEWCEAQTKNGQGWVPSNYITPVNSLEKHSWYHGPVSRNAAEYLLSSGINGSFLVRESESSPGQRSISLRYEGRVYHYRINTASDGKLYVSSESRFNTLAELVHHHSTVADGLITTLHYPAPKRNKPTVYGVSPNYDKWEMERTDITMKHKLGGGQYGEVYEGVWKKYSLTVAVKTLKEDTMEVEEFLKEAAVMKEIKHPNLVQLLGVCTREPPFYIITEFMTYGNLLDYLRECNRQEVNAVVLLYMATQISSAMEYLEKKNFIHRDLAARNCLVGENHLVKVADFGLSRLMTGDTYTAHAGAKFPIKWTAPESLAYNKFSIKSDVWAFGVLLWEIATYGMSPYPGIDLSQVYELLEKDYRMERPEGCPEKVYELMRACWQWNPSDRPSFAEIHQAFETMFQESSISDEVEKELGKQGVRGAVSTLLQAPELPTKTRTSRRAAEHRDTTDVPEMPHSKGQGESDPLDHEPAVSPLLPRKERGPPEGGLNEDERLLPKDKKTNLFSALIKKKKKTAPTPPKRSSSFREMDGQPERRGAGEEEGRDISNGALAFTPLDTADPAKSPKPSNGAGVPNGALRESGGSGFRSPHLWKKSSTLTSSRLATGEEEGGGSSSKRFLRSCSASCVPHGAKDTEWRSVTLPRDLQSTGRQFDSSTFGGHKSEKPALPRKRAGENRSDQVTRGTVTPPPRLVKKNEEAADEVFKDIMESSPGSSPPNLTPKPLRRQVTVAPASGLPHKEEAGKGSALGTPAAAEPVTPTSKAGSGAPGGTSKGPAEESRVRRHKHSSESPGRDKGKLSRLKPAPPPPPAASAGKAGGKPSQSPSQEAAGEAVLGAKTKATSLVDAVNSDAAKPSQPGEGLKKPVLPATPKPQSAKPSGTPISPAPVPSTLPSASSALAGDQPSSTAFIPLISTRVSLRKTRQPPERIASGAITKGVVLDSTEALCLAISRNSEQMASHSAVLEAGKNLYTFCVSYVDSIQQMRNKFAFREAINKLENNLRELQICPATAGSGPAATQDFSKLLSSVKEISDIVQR

T5 sequence (P21802 22-766 isoform P21802-8 limits assumed): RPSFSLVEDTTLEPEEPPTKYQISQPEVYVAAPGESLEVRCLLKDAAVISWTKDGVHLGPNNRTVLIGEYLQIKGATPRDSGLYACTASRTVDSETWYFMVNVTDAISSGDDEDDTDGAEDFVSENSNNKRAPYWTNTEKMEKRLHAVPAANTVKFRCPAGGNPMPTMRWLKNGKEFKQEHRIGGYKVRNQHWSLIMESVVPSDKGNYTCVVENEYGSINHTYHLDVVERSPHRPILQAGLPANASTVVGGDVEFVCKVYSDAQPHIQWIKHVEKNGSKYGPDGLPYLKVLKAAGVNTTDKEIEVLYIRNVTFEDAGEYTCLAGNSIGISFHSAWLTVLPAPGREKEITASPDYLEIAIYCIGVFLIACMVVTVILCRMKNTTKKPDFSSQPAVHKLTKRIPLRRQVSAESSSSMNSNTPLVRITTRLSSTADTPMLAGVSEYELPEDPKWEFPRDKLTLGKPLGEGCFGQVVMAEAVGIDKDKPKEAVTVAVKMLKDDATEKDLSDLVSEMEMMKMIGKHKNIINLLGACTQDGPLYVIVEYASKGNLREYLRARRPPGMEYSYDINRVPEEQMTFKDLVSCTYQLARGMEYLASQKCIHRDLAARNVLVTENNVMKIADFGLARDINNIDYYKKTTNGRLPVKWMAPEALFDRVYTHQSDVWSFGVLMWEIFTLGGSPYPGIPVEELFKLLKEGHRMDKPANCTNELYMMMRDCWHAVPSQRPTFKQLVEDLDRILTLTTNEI
T2 sequence (P12931 whole entry): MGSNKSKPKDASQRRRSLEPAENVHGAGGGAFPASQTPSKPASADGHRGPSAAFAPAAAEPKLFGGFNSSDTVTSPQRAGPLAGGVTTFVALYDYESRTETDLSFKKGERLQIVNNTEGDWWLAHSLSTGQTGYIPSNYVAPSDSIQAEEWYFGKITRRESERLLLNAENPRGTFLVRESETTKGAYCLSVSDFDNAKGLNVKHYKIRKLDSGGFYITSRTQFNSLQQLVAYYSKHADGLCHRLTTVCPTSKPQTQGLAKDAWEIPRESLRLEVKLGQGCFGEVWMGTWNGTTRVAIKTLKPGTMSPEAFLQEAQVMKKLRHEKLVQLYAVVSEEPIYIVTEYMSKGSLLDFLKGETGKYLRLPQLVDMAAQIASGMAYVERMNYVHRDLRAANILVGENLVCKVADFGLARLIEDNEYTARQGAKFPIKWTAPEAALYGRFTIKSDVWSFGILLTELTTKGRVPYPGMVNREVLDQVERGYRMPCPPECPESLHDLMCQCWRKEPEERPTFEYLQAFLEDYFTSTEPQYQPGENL
T7 sequence (Q9UM73 19-1620): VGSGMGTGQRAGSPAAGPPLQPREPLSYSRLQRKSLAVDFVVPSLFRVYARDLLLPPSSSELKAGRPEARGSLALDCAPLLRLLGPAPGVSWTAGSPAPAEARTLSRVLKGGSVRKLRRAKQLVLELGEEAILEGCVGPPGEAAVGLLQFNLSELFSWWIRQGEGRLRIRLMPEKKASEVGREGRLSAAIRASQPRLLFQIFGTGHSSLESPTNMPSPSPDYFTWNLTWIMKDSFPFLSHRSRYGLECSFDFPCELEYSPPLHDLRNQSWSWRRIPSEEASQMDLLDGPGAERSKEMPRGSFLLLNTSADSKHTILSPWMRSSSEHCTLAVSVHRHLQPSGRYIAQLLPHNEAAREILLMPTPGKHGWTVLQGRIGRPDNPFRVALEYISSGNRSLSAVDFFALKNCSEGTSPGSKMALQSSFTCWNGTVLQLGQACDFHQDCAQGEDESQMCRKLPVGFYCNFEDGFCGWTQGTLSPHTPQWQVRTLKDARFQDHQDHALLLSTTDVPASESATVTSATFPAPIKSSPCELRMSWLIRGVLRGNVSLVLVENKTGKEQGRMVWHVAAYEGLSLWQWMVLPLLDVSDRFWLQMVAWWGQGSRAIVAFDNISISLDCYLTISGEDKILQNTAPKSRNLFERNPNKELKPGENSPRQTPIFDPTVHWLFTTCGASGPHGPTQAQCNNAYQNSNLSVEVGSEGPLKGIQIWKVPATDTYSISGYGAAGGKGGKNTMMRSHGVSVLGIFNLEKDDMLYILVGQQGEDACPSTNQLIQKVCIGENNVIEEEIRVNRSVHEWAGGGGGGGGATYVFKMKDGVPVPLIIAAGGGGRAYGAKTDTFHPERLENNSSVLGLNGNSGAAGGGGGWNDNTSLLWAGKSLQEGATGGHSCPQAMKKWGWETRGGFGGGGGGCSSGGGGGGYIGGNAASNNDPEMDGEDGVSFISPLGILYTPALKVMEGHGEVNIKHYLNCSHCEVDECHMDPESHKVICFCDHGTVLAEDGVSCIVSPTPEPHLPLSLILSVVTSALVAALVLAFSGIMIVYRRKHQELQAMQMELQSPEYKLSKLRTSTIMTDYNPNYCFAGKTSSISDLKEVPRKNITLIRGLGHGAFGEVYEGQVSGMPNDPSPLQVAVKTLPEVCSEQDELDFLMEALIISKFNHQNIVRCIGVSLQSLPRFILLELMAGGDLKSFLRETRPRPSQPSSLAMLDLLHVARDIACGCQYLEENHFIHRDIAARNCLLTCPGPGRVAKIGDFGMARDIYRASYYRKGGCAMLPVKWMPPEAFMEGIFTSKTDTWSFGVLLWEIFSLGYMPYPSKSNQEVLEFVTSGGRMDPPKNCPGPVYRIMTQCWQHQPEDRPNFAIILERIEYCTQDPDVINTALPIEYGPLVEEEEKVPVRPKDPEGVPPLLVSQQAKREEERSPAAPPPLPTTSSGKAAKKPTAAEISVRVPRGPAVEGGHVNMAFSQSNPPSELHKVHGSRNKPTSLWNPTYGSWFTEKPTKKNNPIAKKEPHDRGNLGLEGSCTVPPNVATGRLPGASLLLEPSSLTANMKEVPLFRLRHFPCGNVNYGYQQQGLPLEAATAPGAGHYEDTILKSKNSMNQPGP
T4 sequence (P11362 22-822): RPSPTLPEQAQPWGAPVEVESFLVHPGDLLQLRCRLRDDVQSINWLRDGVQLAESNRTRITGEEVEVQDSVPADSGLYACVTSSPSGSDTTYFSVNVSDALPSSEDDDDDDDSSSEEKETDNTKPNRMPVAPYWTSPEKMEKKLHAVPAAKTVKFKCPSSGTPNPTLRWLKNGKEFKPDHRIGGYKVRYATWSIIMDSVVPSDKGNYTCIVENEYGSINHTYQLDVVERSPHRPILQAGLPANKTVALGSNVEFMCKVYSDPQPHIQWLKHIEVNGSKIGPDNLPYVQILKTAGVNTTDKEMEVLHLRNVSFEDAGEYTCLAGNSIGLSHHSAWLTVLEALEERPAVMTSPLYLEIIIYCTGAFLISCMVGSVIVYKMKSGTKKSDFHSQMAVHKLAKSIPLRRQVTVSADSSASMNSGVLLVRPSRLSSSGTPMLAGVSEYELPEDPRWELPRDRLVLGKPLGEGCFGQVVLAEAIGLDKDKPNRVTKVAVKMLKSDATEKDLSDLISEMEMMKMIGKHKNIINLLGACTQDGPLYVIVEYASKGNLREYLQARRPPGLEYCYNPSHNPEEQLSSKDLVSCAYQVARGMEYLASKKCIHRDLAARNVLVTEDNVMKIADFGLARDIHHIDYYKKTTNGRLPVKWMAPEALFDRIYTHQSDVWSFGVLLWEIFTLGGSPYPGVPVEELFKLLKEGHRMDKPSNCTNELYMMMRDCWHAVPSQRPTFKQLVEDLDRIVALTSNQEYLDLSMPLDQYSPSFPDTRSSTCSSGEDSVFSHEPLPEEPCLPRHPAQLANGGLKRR

inhibition at 1 µM (KDR kinase): 54%
inhibition at 1 µM (c-Src kinase): -7%
inhibition at 1 µM (Ret kinase): -33%
inhibition at 1 µM (FGFR1 kinase): 40%
EC50 (phospho-FGFR2): > 500 nM
inhibition at 1 µM (Tie2): -9%
GI50 (MDA-MB134): 138 nM
inhibition at 1 µM (Alk kinase): -21%
inhibition at 1 µM (Abl kinase): 0%
Structure (SMILES): Cc1cc2c(F)c(Oc3ncnc(Nc4cc(C5CC5)n[nH]4)c3F)ccc2[nH]1 [Compound 32, N-(3-cyclopropyl-1H-pyrazol-5-yl)-5-fluoro-6-((4-fluoro-2-methyl-1H-indol-5-yl)oxy) pyrimidin-4-amine]
GI50 (Kato III): > 500 nM
GI50 (KG1a): > 500 nM
GI50 (RT112): > 500 nM
GI50 (AN3_CA): > 500 nM
